Results: ChEMBL document CHEMBL4028801, “A multifactorial approach to hepatobiliary transporter assessment enables improved therapeutic compound development” (Toxicol Sci, 2013)

What was measured:
[1] = biological target: T1, ATP-binding cassette sub-family C member 4 (Homo sapiens, UniProt O15439); experiment: Inhibition of human MRP4 overexpressed in Sf9 cell membrane vesicles assessed as uptake of [3H]-estradiol-17beta-D-glucuronide in presence of ATP and GSH measured after 20 mins by membrane vesicle transport assay; type: ADME, cell-based
T1 sequence (O15439 whole entry): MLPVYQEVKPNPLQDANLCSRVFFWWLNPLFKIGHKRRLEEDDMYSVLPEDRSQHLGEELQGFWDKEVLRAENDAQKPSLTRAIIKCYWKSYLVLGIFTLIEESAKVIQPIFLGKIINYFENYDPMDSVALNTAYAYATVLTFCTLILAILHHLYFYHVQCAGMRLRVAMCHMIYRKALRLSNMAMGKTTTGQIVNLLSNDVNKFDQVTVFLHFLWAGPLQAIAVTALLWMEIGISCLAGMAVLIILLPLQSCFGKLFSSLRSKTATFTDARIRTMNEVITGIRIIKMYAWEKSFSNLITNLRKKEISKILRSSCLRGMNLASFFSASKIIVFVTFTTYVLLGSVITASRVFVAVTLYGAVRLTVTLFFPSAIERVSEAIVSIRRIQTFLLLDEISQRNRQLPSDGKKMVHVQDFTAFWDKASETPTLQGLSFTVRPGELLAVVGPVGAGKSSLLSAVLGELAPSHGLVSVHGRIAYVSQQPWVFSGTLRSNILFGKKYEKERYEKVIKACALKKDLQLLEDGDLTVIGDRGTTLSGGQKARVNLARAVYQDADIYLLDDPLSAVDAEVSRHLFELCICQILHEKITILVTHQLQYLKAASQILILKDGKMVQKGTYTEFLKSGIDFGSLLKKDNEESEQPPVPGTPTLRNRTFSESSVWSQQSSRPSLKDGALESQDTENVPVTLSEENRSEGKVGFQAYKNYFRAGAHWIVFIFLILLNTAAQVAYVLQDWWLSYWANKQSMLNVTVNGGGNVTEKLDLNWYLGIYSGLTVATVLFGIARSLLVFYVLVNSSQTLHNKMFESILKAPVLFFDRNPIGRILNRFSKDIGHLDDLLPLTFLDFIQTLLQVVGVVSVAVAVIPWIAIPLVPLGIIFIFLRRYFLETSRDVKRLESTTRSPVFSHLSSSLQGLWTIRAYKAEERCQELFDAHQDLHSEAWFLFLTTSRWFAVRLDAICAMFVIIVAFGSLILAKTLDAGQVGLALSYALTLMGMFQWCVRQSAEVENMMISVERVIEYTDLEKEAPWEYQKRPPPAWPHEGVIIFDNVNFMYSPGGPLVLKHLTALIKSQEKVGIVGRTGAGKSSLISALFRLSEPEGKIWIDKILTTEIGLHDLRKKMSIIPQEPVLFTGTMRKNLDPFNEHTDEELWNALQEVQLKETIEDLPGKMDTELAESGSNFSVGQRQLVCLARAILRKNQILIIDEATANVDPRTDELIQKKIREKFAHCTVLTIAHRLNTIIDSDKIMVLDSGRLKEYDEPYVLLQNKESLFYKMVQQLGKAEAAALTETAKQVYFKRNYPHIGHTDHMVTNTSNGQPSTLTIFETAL

Bile salt export pump = Bile salt export pump (Homo sapiens, UniProt O95342); experiment: Inhibition of human BSEP overexpressed in Sf9 cell membrane vesicles assessed as uptake of [3H]-taurocholate in presence of ATP measured after 15 to 20 mins by membrane vesicle transport assay; type: ADME, cell-based
Chain of Bile salt export pump (O95342 whole entry): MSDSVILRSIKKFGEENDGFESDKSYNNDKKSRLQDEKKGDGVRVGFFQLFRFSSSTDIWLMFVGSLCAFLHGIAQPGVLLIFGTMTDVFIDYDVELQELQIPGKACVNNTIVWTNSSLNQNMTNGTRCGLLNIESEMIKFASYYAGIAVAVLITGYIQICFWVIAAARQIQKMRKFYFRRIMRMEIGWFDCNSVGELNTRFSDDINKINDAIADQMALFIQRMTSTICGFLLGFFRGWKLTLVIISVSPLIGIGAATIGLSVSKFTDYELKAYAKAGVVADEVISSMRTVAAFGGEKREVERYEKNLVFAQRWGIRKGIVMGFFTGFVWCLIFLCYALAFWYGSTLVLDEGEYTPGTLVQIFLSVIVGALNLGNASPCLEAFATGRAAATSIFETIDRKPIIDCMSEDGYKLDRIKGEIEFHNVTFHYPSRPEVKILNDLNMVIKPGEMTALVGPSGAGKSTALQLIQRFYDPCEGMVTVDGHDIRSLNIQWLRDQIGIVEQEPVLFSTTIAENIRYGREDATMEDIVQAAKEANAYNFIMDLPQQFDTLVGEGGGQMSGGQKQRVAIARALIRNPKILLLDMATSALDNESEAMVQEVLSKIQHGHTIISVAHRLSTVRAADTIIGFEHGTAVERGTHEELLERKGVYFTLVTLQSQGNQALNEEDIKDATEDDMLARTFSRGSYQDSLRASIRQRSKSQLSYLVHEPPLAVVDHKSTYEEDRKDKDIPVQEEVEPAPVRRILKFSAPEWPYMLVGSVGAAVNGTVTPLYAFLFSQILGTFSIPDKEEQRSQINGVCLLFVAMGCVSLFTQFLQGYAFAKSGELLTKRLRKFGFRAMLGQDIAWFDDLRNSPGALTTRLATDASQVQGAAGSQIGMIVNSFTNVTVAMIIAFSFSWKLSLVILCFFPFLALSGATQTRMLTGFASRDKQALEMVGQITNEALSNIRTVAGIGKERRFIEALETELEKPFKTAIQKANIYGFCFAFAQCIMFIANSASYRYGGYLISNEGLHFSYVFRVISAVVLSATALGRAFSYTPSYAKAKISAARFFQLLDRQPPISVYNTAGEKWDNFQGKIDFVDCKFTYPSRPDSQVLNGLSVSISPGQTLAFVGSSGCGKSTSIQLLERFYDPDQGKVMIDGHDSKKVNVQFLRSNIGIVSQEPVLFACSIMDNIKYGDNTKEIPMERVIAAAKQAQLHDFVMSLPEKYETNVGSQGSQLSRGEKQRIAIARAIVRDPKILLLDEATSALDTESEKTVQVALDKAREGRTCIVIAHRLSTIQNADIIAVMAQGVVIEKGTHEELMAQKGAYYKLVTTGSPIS

[2] = biological target: ATP-binding cassette sub-family C member 3 (Homo sapiens, UniProt O15438); experiment: Inhibition of human MRP3 overexpressed in Sf9 insect cell membrane vesicles assessed as uptake of [3H]-estradiol-17beta-D-glucuronide in presence of ATP and GSH measured after 10 mins by membrane vesicle transport assay; type: ADME, cell-based
Chain of ATP-binding cassette sub-family C member 3 (O15438 whole entry): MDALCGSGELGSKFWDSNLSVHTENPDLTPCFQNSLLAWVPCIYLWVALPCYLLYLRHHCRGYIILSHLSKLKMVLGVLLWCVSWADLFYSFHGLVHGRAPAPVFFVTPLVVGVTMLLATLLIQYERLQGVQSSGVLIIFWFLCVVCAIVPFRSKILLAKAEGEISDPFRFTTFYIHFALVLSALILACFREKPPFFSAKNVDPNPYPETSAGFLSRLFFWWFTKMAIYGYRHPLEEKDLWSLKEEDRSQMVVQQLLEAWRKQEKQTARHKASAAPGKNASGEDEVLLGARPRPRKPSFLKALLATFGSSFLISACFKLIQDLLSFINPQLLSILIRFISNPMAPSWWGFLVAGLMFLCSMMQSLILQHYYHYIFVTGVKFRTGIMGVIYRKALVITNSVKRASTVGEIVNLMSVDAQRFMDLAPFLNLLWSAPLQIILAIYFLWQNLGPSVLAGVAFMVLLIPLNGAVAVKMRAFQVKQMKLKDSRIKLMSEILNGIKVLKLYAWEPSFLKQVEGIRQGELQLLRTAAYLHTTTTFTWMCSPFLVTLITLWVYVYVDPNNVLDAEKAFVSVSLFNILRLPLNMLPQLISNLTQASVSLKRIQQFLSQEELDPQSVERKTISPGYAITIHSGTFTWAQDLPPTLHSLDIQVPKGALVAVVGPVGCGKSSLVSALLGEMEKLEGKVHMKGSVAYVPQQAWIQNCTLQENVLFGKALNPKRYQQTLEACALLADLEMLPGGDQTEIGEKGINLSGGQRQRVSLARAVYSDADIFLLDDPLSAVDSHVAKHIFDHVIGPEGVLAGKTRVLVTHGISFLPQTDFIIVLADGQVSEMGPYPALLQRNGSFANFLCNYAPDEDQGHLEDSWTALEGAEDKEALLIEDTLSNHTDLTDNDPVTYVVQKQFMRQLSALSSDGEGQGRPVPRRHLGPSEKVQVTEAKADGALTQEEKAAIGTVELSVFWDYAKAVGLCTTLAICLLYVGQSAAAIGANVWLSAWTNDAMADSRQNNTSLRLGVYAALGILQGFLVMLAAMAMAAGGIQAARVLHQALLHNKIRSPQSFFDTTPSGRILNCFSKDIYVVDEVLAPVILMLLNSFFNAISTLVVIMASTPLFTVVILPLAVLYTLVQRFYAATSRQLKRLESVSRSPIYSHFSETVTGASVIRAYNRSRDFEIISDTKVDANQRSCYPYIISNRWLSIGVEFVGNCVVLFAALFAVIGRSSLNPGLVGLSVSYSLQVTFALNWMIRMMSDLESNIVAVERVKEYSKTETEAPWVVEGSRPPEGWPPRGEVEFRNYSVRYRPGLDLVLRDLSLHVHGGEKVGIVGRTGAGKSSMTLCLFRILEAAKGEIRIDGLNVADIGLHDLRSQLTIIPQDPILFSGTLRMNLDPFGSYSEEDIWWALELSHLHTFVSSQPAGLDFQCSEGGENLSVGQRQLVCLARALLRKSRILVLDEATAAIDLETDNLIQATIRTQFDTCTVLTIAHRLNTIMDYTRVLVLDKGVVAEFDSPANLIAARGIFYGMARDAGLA

[3] = Drug concentration at steady state in human at 6 to 12 mg, po BID after 12 hrs; type: ADME, organism-based; settings: in vivo, read-out: Css
[4] = biological target: ATP-binding cassette sub-family C member 2 (Homo sapiens, UniProt Q92887); experiment: Inhibition of human MRP2 overexpressed in Sf9 cell membrane vesicles assessed as uptake of [3H]-estradiol-17beta-D-glucuronide in presence of ATP and GSH measured after 20 mins by membrane vesicle transport assay
Chain of ATP-binding cassette sub-family C member 2 (Q92887 whole entry): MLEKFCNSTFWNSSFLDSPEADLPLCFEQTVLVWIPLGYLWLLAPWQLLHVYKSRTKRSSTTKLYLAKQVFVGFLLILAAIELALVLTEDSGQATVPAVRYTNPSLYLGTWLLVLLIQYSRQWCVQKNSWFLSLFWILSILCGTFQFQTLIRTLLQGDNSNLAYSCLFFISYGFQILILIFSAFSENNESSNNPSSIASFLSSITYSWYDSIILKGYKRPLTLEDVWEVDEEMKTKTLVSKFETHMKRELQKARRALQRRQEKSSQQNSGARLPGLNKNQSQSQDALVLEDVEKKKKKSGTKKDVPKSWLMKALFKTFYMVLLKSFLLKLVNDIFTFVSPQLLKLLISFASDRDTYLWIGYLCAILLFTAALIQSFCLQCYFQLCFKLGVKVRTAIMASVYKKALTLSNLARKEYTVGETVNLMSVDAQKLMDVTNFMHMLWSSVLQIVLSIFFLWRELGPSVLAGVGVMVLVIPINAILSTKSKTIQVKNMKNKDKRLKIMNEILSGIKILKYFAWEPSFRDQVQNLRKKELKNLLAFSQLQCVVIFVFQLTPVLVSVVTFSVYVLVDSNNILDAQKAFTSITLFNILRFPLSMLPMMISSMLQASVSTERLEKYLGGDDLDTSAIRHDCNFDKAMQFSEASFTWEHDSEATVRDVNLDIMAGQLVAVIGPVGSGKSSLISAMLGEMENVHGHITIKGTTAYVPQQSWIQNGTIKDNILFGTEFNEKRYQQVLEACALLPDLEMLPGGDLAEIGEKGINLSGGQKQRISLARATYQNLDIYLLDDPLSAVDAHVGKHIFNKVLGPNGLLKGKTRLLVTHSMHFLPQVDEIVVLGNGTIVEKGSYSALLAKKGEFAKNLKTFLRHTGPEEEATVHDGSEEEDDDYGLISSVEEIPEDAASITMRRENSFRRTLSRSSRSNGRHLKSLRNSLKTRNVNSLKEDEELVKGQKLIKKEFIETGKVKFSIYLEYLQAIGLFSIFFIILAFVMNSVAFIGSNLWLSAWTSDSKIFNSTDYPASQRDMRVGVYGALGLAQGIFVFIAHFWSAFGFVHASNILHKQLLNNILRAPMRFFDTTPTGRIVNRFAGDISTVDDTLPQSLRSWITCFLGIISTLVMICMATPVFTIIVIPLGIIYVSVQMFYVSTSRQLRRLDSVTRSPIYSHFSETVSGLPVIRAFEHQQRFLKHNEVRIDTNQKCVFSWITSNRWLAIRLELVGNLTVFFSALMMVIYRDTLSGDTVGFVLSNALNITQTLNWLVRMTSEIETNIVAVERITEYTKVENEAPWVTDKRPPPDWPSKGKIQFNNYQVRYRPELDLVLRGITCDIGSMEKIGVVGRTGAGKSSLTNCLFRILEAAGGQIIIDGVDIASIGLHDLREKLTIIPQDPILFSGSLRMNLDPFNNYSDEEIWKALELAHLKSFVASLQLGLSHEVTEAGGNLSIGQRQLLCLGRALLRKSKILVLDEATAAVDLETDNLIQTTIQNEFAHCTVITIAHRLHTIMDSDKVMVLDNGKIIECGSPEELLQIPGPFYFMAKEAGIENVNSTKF

[5] = Ratio of drug concentration at steady state in human at 6 to 12 mg, po BID after 12 hrs to IC50 for human BSEP overexpressed in Sf9 insect cells; type: ADME, organism-based; settings: in vivo
[6] = AUC in human at 6 to 12 mg, po BID after 12 hrs; type: ADME, organism-based; settings: in vivo
[7] = Ratio of drug concentration at steady state in human at 2.5 to 20 mg, po QD after 24 hrs to IC50 for human BSEP overexpressed in Sf9 insect cells; type: ADME, organism-based; settings: in vivo
[8] = Drug concentration at steady state in human at 2.5 to 20 mg, po QD after 24 hrs; type: ADME, organism-based; settings: in vivo, read-out: Css
[9] = AUC in human at 2.5 to 20 mg, po QD after 24 hrs; type: ADME, organism-based; settings: in vivo
[10] = Drug concentration at steady state in human at 5 to 80 mg, po QD after 24 hrs; type: ADME, organism-based; settings: in vivo, read-out: Css
[11] = AUC in human at 5 to 80 mg, po QD after 24 hrs; type: ADME, organism-based; settings: in vivo
[12] = Ratio of drug concentration at steady state at 1% applied topically BID after 12 hrs to IC50 for human BSEP overexpressed in Sf9 insect cells; type: ADME; settings: topical_or_ocular
[13] = AUC in human at 1% applied topically BID after 12 hrs; type: ADME; design: time < 12 hr; settings: topical or ocular
[14] = Drug concentration in human at steady state at 1% applied topically BID after 12 hrs; type: ADME; settings: topical or ocular, read-out: Css
[15] = Ratio of drug concentration at steady state in human at 0.1 to 1 mg, po QD after 24 hrs to IC50 for human BSEP overexpressed in Sf9 insect cells; type: ADME, organism-based; settings: in vivo
[16] = Ratio of drug concentration at steady state in human at 0.1 to 1 mg, po QD after 24 hrs to IC50 for human MRP2 overexpressed in Sf9 insect cells; type: ADME, organism-based; settings: in vivo
[17] = Drug concentration at steady state in human at 0.1 to 1 mg, po QD after 24 hrs; type: ADME, organism-based; settings: in vivo, read-out: Css
[18] = AUC in human at 0.1 to 1 mg, po QD after 24 hrs; type: ADME, organism-based; settings: in vivo
[19] = Ratio of drug concentration at steady state in human at 20 to 60 mg, po QD after 24 hrs to IC50 for human MRP4 overexpressed in Sf9 insect cells; type: ADME, organism-based; settings: in vivo
[20] = AUC in human at 20 to 60 mg, po QD after 24 hrs; type: ADME, organism-based; settings: in vivo
[21] = Drug concentration at steady state in human at 20 to 60 mg, po QD after 24 hrs; type: ADME, organism-based; settings: in vivo, read-out: Css
[22] = Ratio of drug concentration at steady state in human at 20 to 60 mg, po QD after 24 hrs to IC50 for human BSEP overexpressed in Sf9 insect cells; type: ADME, organism-based; settings: in vivo
clinical = settings: human, in vivo, po, 10 mg
[23] = Drug concentration at steady state in human at 10 mg, po QD after 24 hrs; settings: in vivo

SMILES	IC50 [1]	IC50 [2]	IC50 [4]	IC50 (Bile salt export pump)	also measured
COc1cc(C(C)=O)ccc1OCCCN1CCC(c2noc3cc(F)ccc23)CC1 [ILOPERIDONE]	> 133 µM	> 133 µM	> 133 µM	23.4 µM	concentration at 12 h [3]: 9 nM; Ratio [5]: 0.00038; AUC at 12 h [6]: 0.106 µM·h
COC(=O)[C@H]1[C@H]2C[C@@H]3c4[nH]c5cc(OC)ccc5c4CCN3C[C@H]2C[C@@H](OC(=O)c2cc(OC)c(OC)c(OC)c2)[C@@H]1OC [RESERPINE]	> 133 µM	> 133 µM	68.4 µM	–	Ratio [15]: 0.00007; Ratio [16]: 0; concentration at 24 h [17]: 1 nM; AUC at 24 h [18]: 0.014 µM·h
COC(=O)C1=C(C)NC(C)=C(C(=O)OCC(C)C)C1c1ccccc1[N+](=O)[O-] (configuration not stated) [NISOLDIPINE]	16.5 µM	> 133 µM	> 133 µM	33 µM	Ratio [19]: 0; AUC at 24 h [20]: 0.134 µM·h; concentration at 24 h [21]: 6 nM; Ratio [22]: 0.00017
CCOC(=O)N1CCC(=C2c3ccc(Cl)cc3CCc3cccnc32)CC1 [LORATADINE]	> 133 µM	> 133 µM	> 133 µM	12 µM	AUC at 24 h (clinical): 0.029 µM·h; concentration at 24 h [23]: 1 nM

Continued, in another order:

IC50 [1]	IC50 [2]	IC50 [4]	SMILES	IC50 (Bile salt export pump)	also measured
> 133 µM	> 133 µM	> 133 µM	COC(=O)C1=C(C)NC(C)=C(C(=O)OC(C)C)C1c1cccc2nonc12 (configuration not stated) [ISRADIPINE]	28 µM	Ratio [7]: 0.0003; concentration at 24 h [8]: 8 nM; AUC at 24 h [9]: 0.197 µM·h
> 133 µM	> 133 µM	> 133 µM	CCC(C)(C)C(=O)O[C@H]1C[C@@H](C)C=C2C=C[C@H](C)[C@H](CC[C@@H]3C[C@@H](O)CC(=O)O3)[C@H]21 [SIMVASTATIN]	–	concentration at 24 h [10]: 9 nM; AUC at 24 h [11]: 0.212 µM·h
> 133 µM	> 133 µM	> 133 µM	CC[C@@H]1/C=C(\C)C[C@H](C)C[C@H](OC)[C@H]2O[C@@](O)(C(=O)C(=O)N3CCCC[C@H]3C(=O)O[C@H](/C(C)=C/[C@@H]3CC[C@H](Cl)[C@H](OC)C3)[C@H](C)[C@@H](O)CC1=O)[C@H](C)C[C@@H]2OC [PIMECROLIMUS]	10 µM	Ratio [12]: 0.00019; AUC at 12 h [13]: 0.023 µM·h; concentration at 12 h [14]: 2 nM
